Experimental data from PMC12272882, “Ancestral evolution of oxidase activity in a class of (S)-nicotine and (S)-6-hydroxynicotine-degrading flavoenzymes” (The Journal of Biological Chemistry, 2025).
Where two headings read alike, the source gives them in different places.

Experiments:
Node D [1] = conditions: pH 7.5, 4 °C, no O2; binding to oxidized enzyme; biphasic
Target sequence in this assay (DOC12272882_5 1-447 M100V): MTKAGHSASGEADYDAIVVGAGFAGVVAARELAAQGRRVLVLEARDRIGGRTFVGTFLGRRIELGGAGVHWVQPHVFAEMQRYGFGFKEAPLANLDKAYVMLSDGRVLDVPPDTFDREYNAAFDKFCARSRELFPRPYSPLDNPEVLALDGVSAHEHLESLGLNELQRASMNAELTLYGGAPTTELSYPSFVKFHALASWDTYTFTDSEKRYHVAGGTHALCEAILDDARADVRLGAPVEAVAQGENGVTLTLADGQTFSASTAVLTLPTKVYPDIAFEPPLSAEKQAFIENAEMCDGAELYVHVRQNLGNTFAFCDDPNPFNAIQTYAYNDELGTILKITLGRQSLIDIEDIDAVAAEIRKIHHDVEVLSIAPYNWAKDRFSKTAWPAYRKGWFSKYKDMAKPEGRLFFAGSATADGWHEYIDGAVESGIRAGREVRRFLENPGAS

Node D [2] = conditions: pH 7.5, 4 °C, no O2; binding to oxidized enzyme; biphasic; remark: listed apart in the source
Target sequence in this assay (DOC12272882_5 1-447 A90V): as the sequence (DOC12272882_5 1-447 M100V) above, with A90V, V100M counted along it

Node A [3] = biological target: T1, Node A (synthetic construct, UniProt Z9LAG0LSP2); test: anaerobic stopped-flow flavin reduction at […] nm; format: biochemical; conditions: pH 7.5, 4 °C, no O2
T1 construct: ancestral reconstruction
T1 sequence (Z9LAG0LSP2 1-442): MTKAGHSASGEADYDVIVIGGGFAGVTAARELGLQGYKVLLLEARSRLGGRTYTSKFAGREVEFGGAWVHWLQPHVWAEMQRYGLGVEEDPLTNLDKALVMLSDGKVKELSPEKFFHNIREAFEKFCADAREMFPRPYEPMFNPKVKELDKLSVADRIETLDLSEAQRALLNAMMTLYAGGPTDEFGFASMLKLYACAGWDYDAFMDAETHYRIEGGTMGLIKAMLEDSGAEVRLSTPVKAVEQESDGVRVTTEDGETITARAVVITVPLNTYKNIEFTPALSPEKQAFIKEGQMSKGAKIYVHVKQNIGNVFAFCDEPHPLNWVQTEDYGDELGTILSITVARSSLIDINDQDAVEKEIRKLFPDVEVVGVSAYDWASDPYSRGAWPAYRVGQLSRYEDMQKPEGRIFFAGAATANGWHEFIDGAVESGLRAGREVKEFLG

Node D [4] = conditions: pH 7.5, 4 °C, no O2; binding to oxidized enzyme; biphasic; remark: listed apart in the source
Target sequence in this assay (DOC12272882_5 1-447 E300T): as the sequence (DOC12272882_5 1-447 M100V) above, with V100M, E300T counted along it

Node C = biological target: T2, Node C (synthetic construct, UniProt Z9TTH1JYZ3); test: absorbance spectrum of purified enzyme; format: binding; conditions: as purified
T2 construct: ancestral reconstruction; N-terminal MTKAGHSASGEA peptide added, C-terminal His tag, pET29b, E. coli BL21(DE3); 431 positions

Node D [5] = biological target: T3, Node D (synthetic construct, UniProt Z9ZYW4GBP2); test: absorbance spectrum of purified enzyme; format: binding; conditions: as purified
T3 construct: ancestral reconstruction; N-terminal MTKAGHSASGEA peptide (from Node D's own predicted N-terminal region), C-terminal His tag, pET29b, E. coli BL21(DE3); 431 positions

Node B = biological target: T4, Node B (synthetic construct, UniProt Z9QPI4SOH8); test: absorbance spectrum of purified enzyme; format: binding; conditions: as purified
T4 construct: ancestral reconstruction

Node A [6] = biological target: T1, Node A; test: absorbance spectrum of purified enzyme; format: binding; conditions: as purified
NctB = biological target: T5, NctB (Shinella sp. HZN7, UniProt A0A075BSX9); test: absorbance spectrum of purified enzyme; format: binding; conditions: as purified
T5 construct: synthetic gene in pET29b, C-terminal His tag, E. coli BL21(DE3); FAD holoenzyme
T5 sequence (A0A075BSX9 whole entry): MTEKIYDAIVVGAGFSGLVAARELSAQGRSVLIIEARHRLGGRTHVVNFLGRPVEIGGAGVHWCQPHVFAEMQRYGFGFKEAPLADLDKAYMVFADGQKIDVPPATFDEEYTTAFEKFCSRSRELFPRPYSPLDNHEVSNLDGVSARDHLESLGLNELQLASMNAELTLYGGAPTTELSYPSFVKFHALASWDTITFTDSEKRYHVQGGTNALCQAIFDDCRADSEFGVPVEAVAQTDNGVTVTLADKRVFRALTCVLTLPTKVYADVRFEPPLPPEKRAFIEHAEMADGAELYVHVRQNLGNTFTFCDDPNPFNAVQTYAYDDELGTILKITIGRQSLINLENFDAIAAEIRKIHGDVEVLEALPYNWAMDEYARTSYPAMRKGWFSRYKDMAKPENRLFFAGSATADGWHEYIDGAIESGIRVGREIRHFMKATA

| Structure (SMILES) | Kd (Node D [1]) | Kd (Node D [2]) | anaerobic stopped-flow flavin reduction at 450 nm (Node A [3]) | Kd (Node D [4]) | absorbance spectrum of purified enzyme (Node C) | absorbance spectrum of purified enzyme (Node D [5]) | absorbance spectrum of purified enzyme (Node B) | absorbance spectrum of purified enzyme (Node A [6]) | absorbance spectrum of purified enzyme (NctB) |
| --- | --- | --- | --- | --- | --- | --- | --- | --- | --- |
| CN1CCC[C@H]1c1ccc(O)nc1 [6OHN, (S)-6-hydroxynicotine] | All three mutants were capable of reacting with 6OHN | All three mutants were capable of reacting with 6OHN | Node A reacted poorly with both nicotine and 6OHN | All three mutants were capable of reacting with 6OHN |  |  |  |  |  |
| CN1CCC[C@H]1c1cccnc1 [(S)-nicotine] |  |  | Node A reacted poorly with both nicotine and 6OHN |  |  |  |  |  |  |
| Cc1cc2nc3c(=O)[nH]c(=O)nc-3n(C[C@H](O)[C@H](O)[C@H](O)COP(=O)(O)OP(=O)(O)OC[C@H]3O[C@@H](n4cnc5c(N)ncnc54)[C@H](O)[C@@H]3O)c2cc1C [FAD, flavin adenine dinucleotide] |  |  |  |  | All ASR constructs purified with FAD bound | All ASR constructs purified with FAD bound | All ASR constructs purified with FAD bound | All ASR constructs purified with FAD bound | all of the ASR enzymes and NctB have typical spectra of oxidized FAD |
